Data published in paper PMC10590056, “Design and synthesis of cabotegravir derivatives bearing 1,2,3-triazole and evaluation of anti-liver cancer activity” (Frontiers in Pharmacology, 2023).

System: HepG2 cells
Assay: Cell cycle analysis (PI, flow cytometry)
Assay type: cell-based
Details: 24 h; for Percentage of cells in the S phase (change vs control): HepG2, 2-8 μM
Procedure: HepG2 cells were seeded in a 6-well plate at a density of 5 × 10^6 cells/well and treated with either KJ-5 or KJ-12 at concentrations of 2, 4, or 8 μM for 24 h. Cells were then collected and responded in […] of cold PBS. Subsequently, 700 μL of cold 70% ethanol was added to the cells and gently mixed by inversion on ice for 1 h. Cells were then centrifuged at 2,000 rpm for 10 min, washed once with 2 mL of cold PBS, and the supernatant was discarded. The cell pellet was resuspended in 250 μL of cold PBS, followed by the addition of 10 μL of RNase at a final concentration of 0.4 mg/mL and incubated at 37°C for 30 min. An additional 250 μL of PBS was added, followed by the addition of 5 μL of PI solution at a final concentration of 10 μg/mL. The samples were incubated […] in the dark overnight at 4°C. Finally, the samples were analyzed by flow cytometry.

Row | Compound | Percentage of cells in the G1 phase (HepG2, 2 μM) | Percentage of cells in the G2/M phase (HepG2, 2 μM) | Percentage of cells in the G1 phase (HepG2, 4 μM) | Percentage of cells in the G2/M phase (HepG2, 4 μM) | Percentage of cells in the G1 phase (HepG2, 8 μM) | Percentage of cells in the G2/M phase (HepG2, 8 μM) | Percentage of cells in the S phase (change vs control)
1 | COc1c2n(cc(C(=O)Nc3cccc(-c4cn(-c5c(C)cc(C)cc5C)nn4)c3)c1=O)C[C@H]1OC[C@H](C)N1C2=O [KJ-12] | 47.4% | 22.2% | 25% | 47.5% | 16.4% | 59.7% | remained unchanged substantially
2 | COc1c2n(cc(C(=O)Nc3cccc(-c4cn(-c5cc(C(F)(F)F)cc(C(F)(F)F)c5)nn4)c3)c1=O)C[C@H]1OC[C@H](C)N1C2=O [KJ-5] | 21.2% | 50.4% | 15% | 58.3% | 13.5% | 62.6% | did not change significantly
